Assay results: patent publication US10000474B2, “Histone deacetylase inhibitors and uses thereof” (MUSC FOUNDATION FOR RESEARCH DEVELOPMENT, priority 2014, dated 2018)
pIC50: −log10 of the molar value. Counter-ions that a name gives are not always drawn.

Columns and labels:
Recombinant human HDAC4 = target: T1, Recombinant human HDAC4 (Homo sapiens, UniProt P56524); assay: HDAC inhibitory assay, HDAC4 (Boc-Lys(Tfa)-AMC substrate); format: biochemical; details: test concentration not given; average of triplicate
T1 construct: purchased Millipore
Method: (§1) The compounds of Examples 1-12 and 14-16 were evaluated for their ability to act as inhibitors of human HDAC. The compound of Example 13 was not tested. Recombinant human HDAC1, HDAC2, HDAC3/NcoR2, HDAC5, HDAC6, HDAC8, HDAC9, HDAC10 and HDAC11 were purchased from BPS Biosciences. Recombinant human HDAC4 and HDAC7 were purchased from Millipore. The substrate Boc-Lys(Ac)-AMC and Boc-Lys(Tfa)-AMC were purchased from Bachem. The substrate Ac-RHK(Ac)K(Ac)-AMC was purchased from Enzo Life Sciences. Due to the different specific activities of each isoform, different amount of enzyme was used in each isoform screening assay. In these assays, trichostatin A (TSA), suberanilohydroxamic acid and diphenylacetohydroxamic acid (DPAHA) were employed as positive controls. All determinations were carried out in triplicate, and reported values were the average of these determinations, which in no case varied by more than 5%.
For evaluating the inhibition of class IIa HDACs (HDAC4, HDAC5, HDAC7 and HDAC9) and class IV HDAC (HDAC11), 10 μl of test samples were first incubated with 1 ng HDAC4 (specific activity=15400 pmol/min/μg), 5 ng HDAC5 (specific activity=2521 pmol/min/μg), 1 ng HDAC7 (specific activity=26340 pmol/min/μg), 5 ng HDAC9 (specific activity=3000 pmol/min/μg), and 500 ng HDAC11 (specific activity=1.8 pmol/min/μg) respectively. Then 25 μl of the Boc-Lys(Tfa)-AMC substrate (50 μM final concentration) was added and incubated at 37° C. for 30-60 min, and followed by adding 50 μl of developer. The last step was to read the samples in a SpectraMax M5 plate reader (Molecular Devices) at an excitation wavelength of 360 nm and an emission wavelength of 460 nm.

[1] = Cell proliferation assay (MTS, cytotoxicity); format: cell-based; details: human; cell line not given (MV4-11 24 hours or MCF-7 72 hours); 1 μM to 100 μM; average of triplicate
Method: The cytotoxicity of representative compounds of the invention was determined by MTS assay, following the protocol of CellTiter 96® AQueous Non-Radioactive Cell Proliferation Assay (Promega). The cells used in this assay were MV4-11 (human, macrophage, biphenotypic B myelomonocytic leukemia) and MCF-7 (human, epithelial, adenocarcinoma). […] The MV-4-11 cells were incubated with the representative compounds for 24 hours at 37° C. in 5% CO2 while the MCF-7 cells were first seeded on the 96-well plate and were allowed to attach for 1 day and then were incubated with different concentrations of the representative compound for 72 hours at 37° C. in 5% CO2. After 24 or 72 hours 20 μl of MTS reagent solution was added into each well and the cells were incubated for another 4 hours at 37° C. under 5% CO2 environment. The absorbance was measured at 490 nm in a SpectraMax M5 plate reader (Molecular Devices) to determine the cell viability. The absorbance was directly proportional to the amount of viable cells. All determinations were carried out in triplicate, and reported values in Table 2 below were the average of these determinations, which in no case varied by more than 5%.

Recombinant human HDAC6 = target: T2, Recombinant human HDAC6 (Homo sapiens, UniProt Q9UBN7); assay: HDAC inhibitory assay, HDAC6 (Boc-Lys(Ac)-AMC substrate); format: biochemical; details: test concentration not given; average of triplicate
T2 construct: purchased BPS Biosciences
T2 sequence (Q9UBN7 1-1215): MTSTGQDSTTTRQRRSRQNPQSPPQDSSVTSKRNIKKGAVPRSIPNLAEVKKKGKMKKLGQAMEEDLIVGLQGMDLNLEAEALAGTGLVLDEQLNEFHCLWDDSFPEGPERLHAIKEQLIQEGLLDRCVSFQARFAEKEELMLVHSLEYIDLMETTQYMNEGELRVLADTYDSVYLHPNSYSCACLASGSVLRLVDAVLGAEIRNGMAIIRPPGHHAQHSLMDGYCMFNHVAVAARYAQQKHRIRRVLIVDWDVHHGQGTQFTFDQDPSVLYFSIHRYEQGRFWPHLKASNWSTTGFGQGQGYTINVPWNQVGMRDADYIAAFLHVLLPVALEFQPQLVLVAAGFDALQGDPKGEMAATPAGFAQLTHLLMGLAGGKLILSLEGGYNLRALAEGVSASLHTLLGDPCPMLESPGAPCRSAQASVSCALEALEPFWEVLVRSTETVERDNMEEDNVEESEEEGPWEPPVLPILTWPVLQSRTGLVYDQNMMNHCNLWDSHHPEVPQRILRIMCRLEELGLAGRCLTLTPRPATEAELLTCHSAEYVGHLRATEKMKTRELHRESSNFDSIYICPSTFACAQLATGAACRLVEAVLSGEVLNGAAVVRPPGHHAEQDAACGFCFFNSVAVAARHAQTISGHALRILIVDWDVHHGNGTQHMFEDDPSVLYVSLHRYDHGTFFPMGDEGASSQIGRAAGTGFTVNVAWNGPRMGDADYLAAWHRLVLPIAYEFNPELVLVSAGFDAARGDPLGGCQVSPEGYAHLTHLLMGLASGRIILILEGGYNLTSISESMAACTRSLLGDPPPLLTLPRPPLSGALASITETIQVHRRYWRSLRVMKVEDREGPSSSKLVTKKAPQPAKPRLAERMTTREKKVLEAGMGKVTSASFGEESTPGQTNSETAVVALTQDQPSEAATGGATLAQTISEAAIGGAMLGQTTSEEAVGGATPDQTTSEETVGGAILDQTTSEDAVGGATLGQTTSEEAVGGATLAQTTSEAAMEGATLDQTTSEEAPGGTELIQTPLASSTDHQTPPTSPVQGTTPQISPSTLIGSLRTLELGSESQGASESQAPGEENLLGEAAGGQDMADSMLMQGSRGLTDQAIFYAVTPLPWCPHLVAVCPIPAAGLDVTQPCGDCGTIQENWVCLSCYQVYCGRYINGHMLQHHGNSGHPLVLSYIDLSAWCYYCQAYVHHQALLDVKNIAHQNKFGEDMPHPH
Method: as §1
Then 25 μl of the Boc-Lys(Ac)-AMC substrate (50 μM final concentration) was added and incubated at 37° C. for 30-60 min, and followed by adding 50 μl of developer (1 mg/ml trypsin and 1 μM TSA). The last step was reading the samples in a SpectraMax M5 plate reader (Molecular Devices) at an excitation wavelength of 360 nm and an emission wavelength of 460 nm.

T1 sequence (P56524 whole entry): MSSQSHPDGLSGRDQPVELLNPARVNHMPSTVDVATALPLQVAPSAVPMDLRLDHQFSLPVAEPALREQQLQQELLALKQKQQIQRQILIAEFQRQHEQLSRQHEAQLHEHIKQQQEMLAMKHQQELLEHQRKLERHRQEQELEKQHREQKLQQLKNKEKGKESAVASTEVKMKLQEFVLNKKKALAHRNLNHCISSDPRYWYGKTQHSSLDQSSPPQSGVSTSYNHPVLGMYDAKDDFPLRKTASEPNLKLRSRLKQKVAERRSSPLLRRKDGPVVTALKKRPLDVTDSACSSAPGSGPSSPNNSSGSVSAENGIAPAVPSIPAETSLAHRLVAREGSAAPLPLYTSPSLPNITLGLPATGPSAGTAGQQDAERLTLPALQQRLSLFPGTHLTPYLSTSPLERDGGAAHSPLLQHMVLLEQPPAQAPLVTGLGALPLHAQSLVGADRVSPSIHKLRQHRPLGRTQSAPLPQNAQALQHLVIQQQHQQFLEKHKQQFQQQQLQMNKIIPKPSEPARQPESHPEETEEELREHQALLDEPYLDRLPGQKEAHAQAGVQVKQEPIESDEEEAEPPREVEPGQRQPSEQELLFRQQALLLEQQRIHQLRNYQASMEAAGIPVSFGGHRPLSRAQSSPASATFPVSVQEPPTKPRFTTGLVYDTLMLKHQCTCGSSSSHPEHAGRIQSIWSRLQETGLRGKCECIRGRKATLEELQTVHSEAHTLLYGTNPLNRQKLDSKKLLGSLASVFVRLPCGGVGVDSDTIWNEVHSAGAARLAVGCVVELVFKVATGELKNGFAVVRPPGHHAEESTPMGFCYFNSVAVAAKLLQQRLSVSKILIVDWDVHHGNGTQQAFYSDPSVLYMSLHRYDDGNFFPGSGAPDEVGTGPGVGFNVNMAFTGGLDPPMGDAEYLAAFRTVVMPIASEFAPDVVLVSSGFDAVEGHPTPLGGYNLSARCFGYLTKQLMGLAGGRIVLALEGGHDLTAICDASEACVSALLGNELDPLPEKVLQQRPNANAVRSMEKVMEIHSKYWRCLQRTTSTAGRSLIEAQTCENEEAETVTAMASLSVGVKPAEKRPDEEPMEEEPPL

| SMILES | HDAC 4 inhibitory activity (Recombinant human HDAC4) | melting point | HDAC 6 inhibitory activity (Recombinant human HDAC6) | pIC50 [1] |
| --- | --- | --- | --- | --- |
| O=C(Nc1ccccc1)c1coc(-c2ccccc2O)n1 [Example 1, 2-(2-Hydroxyphenyl)-N-phenyloxazole-4-carboxamide] | 17.1% | 173 to 174 °C | 50.3% | 4.60 |
| O=C(NC(c1ccccc1)c1ccccc1)c1coc(-c2ccccc2O)n1 [Example 2, N-Benzhydryl-2-(2-hydroxyphenyl)oxazole-4-carboxamide] | 20.7% | 226 to 227 °C | 61.6% | 5.12 |
| O=C(NCC(c1ccccc1)c1ccccc1)c1coc(-c2ccccc2O)n1 [Example 3, N-(2,2-Diphenylethyl)-2-(2-hydroxyphenyl)oxazole-4-carboxamide] | 8.5% | 206 to 208 °C | 49.1% | 4.40 |
| O=C(NCCC(c1ccccc1)c1ccccc1)c1coc(-c2ccccc2O)n1 [Example 4, N-(3,3-Diphenylpropyl)-2-(2-hydroxyphenyl)oxazole-4-carboxamide] | 25.8% |  | 48.1% |  |
| O=C(Nc1ccc(-c2ccccc2)cc1)c1coc(-c2ccccc2O)n1 [Example 5, N-([1,1′-Biphenyl]-4-yl)-2-(2-hydroxyphenyl)oxazole-4-carboxamide] | 25.5% | 218 to 219 °C | 45.6% |  |
| O=C(NCc1ccc(-c2ccccc2)cc1)c1coc(-c2ccccc2O)n1 [Example 6, N-([1,1′-Biphenyl]-4-ylmethyl)-2-(2-hydroxyphenyl)oxazole-4-carboxamide] | 24.4% | 220 to 221 °C | 47.8% | < 4.00 |
| O=C(NCc1cccc2ccccc12)c1coc(-c2ccccc2O)n1 [Example 7, 2-(2-Hydroxyphenyl)-N-(naphthalen-1-ylmethyl)oxazole-4-carboxamide] | 21.3% |  | 40.4% |  |
| O=C(NCCc1c[nH]c2ccccc12)c1coc(-c2ccccc2O)n1 [Example 8, N-(2-(1H-Indol-3-yl)ethyl)-2-(2-hydroxyphenyl)oxazole-4-carboxamide] | 7.5% |  | 30.8% |  |
| O=C(NCCCCN1C(=O)c2ccccc2C1=O)c1coc(-c2ccccc2O)n1 [Example 9, N-(4-(1,3-Dioxoisoindolin-2-yl)butyl)-2-(2-hydroxyphenyl)oxazole-4-carboxamide] | 17.5% |  | 46.0% |  |
| O=C(NCCCCNC(=O)C(c1ccccc1)c1ccccc1)c1coc(-c2ccccc2O)n1 [Example 10, N-(4-(2,2-Diphenylacetamido)butyl)-2-(2-hydroxyphenyl)oxazole-4-carboxamide] | 4.8% |  | 26.7% |  |

Now from value to compound, other results behind:

| HDAC 4 inhibitory activity (Recombinant human HDAC4) | melting point | HDAC 6 inhibitory activity (Recombinant human HDAC6) | SMILES | pIC50 [1] |
| --- | --- | --- | --- | --- |
| 55.8% |  | 50.2% | O=C(NCCCCNC(=S)NCCC(c1ccccc1)c1ccccc1)c1coc(-c2ccccc2O)n1 [Example 11, N-(4-(3-(3,3-Diphenylpropyl)thioureido)butyl)-2-(2-hydroxyphenyl)oxazole-4-carboxamide] |  |
| 6.5% |  | 28.9% | O=C(NCCCCNCCC(c1ccccc1)c1ccccc1)c1coc(-c2ccccc2O)n1 [Example 12, N-(4-((3,3-Diphenylpropyl)amino)butyl)-2-(2-hydroxyphenyl)oxazole-4-carboxamide hydrochloride] |  |
| 24.2% | 248 to 251 °C | 60.3% | O=C(O)c1ccc(CNC(=O)c2coc(-c3ccccc3O)n2)cc1 [Example 14, 4-((2-(2-Hydroxyphenyl)oxazole-4-carboxamido)methyl)benzoic acid] |  |
| 18.3% |  | 30.8% | O=C(Nc1ccccc1)c1ccc(CNC(=O)c2coc(-c3ccccc3O)n2)cc1 [Example 15, 2-(2-Hydroxyphenyl)-N-(4-(phenylcarbamoyl)benzyl)oxazole-4-carboxamide] |  |
| 28.1% |  | 59.9% | O=C(CNC(=O)c1coc(-c2ccccc2O)n1)Nc1ccccc1 [Example 16, 2-(2-Hydroxyphenyl)-N-(2-oxo-2-(phenylamino)ethyl)oxazole-4-carboxamide] |  |
